The values that follow come from ChEMBL document CHEMBL1201862, “PubChem BioAssay data set” (2004).

Structures are written as SMILES.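 Where inhibition never reached the appropriate level, the endpoint shown equals the highest concentration tested. Otherwise, values were interpolated linearly from a five-concentration, 48-hour dose response in 96-well plates. Here, GI50 denotes the concentration required for 50% inhibition of growth.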 The source made the active and inactive calls. No stated cut-off is given here; in the data, active = GI50 up to about 1.1 µM and inactive = higher.

Test systems include HCT-15; SNB-19; COLO 205; A549; DLD-1; UACC-257; A498; EKVX; OVCAR-4; SR; OVCAR-5; K562; SW-620; M19-MEL; CAKI-1; SF-295; NCI-H23; DU-145; NCI/ADR-RES; Hs-578T.
Common to all, as to assay: NCI anticancer screen, dose series, 48 h

As for `O=C(Nc1cc(C(F)(F)F)ccc1Cl)C(=O)C(C(=O)c1ccc2ccccc2c1)C1OC(=O)c2ccccc21` (configuration not stated), the GI50 with HCT-15 is 6.32 µM; in the assay with SNB-19, 6.21 µM (inactive); with COLO 205, 10.4 µM (inactive); in the assay with A549, 9.57 µM (inactive); in the assay with DLD-1 it was 9.82 µM (inactive); in the assay on UACC-257, 10 µM (inactive). The GI50 with A498 is 6.55 µM (inactive); in the assay on EKVX, 13.5 µM (inactive); in the assay with OVCAR-4, 18 µM (inactive); with SR, 2.62 µM (inactive); with OVCAR-5, 8.95 µM (inactive); in the assay with K562, 4.66 µM (inactive). Besides, the GI50 in the assay with SW-620 is 6.35 µM (inactive); in the assay on M19-MEL, 11.8 µM (inactive); with CAKI-1 it was 7.21 µM (inactive); in the assay with SF-295, 4.81 µM (inactive); in the assay on NCI-H23 it was 5.26 µM (inactive).
As to `COc1cc2cc(c1Cl)N(C)C(=O)C[C@H](OC(=O)[C@H](C)N(C)C(C)=O)[C@]1(C)O[C@H]1[C@H](C)[C@@H]1C[C@@](O)(NC(=O)O1)[C@H](OC)/C=C/C=C(/C)C2`, the GI50 in the assay with HCT-15 was 0.0292 µM; in the assay with SNB-19 it was 0.0149 µM (active); with DU-145, 0.00135 µM (active); in the assay with COLO 205 it was 0.02 µM (active); in the assay with A549, 0.0255 µM (active); in the assay on NCI/ADR-RES, 0.0975 µM (active). Besides, the GI50 in the assay with DLD-1 is 0.025 µM (active); in the assay with UACC-257 it was 0.0373 µM (active); in the assay with A498, 0.0161 µM (active); in the assay with EKVX, 0.355 µM (active); in the assay with OVCAR-4, 0.794 µM (active); in the assay on SR, 0.0156 µM (active). The GI50 in the assay with Hs-578T was 0.0219 µM (active); in the assay on OVCAR-5 it was 6.98 µM (inactive); in the assay on K562 it was 0.0176 µM (active); in the assay on SW-620, 0.0165 µM (active); in the assay with M19-MEL, 0.0628 µM (active); in the assay with CAKI-1, 0.0531 µM (active). Further, the GI50 is 0.0174 µM (active) in the assay with SF-295 and 0.0201 µM (active) in the assay with NCI-H23.
In the case of `CCCCCCCCCCCC(=O)OCCOCCOCCOCCOCCOC(=O)CCCCCCCCCCC`, the GI50 in the assay on HCT-15 is > 100 µM; in the assay on SNB-19 it was > 100 µM (inactive); in the assay on COLO 205, > 100 µM (inactive); with A549 it was > 100 µM (inactive); in the assay with DLD-1 it was > 100 µM (inactive); with UACC-257, > 100 µM (inactive). In addition, the GI50 in the assay with A498, with EKVX, with OVCAR-4, in the assay on SR, with OVCAR-5 and in the assay on K562 was > 100 µM (inactive) each time. For the same compound, the GI50 in the assay on SW-620, with M19-MEL, in the assay with CAKI-1, with SF-295 and with NCI-H23 was > 100 µM (inactive) in each case.
Turning to `C=CC(=O)NC(=N)NC#N`, the GI50 in the assay on HCT-15 was 120 µM; in the assay on SNB-19, 363 µM (inactive); in the assay on COLO 205, 149 µM (inactive); in the assay with A549, 195 µM (inactive); in the assay with NCI/ADR-RES, > 100 µM (inactive); in the assay on DLD-1 it was 153 µM (inactive). The GI50 with UACC-257 was 125 µM (inactive); in the assay on A498, 152 µM (inactive); in the assay on EKVX, > 100 µM (inactive); in the assay on OVCAR-4, 168 µM (inactive); in the assay with SR, 150 µM (inactive); with OVCAR-5, 177 µM (inactive). Further, the GI50 with K562 was 35.9 µM (inactive); with SW-620 it was > 76.2 µM (inactive); in the assay on M19-MEL, 140 µM (inactive); in the assay on CAKI-1 it was 69 µM (inactive); in the assay with SF-295, 313 µM (inactive); in the assay on NCI-H23, 188 µM (inactive).
